Patent publication US11078197B2, “5-membered and bicyclic heterocyclic amides as inhibitors of rock” (BRISTOL-MYERS SQUIBB COMPANY, priority 2017, dated 2021)

target: ROCK2 (Homo sapiens (Human), UniProt O75116); assay: ROCK2 assay (peptide phosphorylation, LABCHIP 3000 Reader); type: biochemical; details: 5 μM ATP, 1.5 μM peptide substrate, dose-response
Protocol: After incubation, the reaction was terminated by the addition of EDTA and the phosphorylated and non-phosphorylated peptides separated using a LABCHIP®3000 Reader (Caliper Life Sciences). […] Compounds were tested in dose-response format, and the inhibition of kinase activity was calculated at each concentration of compound. […] Representative Examples were tested in the ROCK2 assay described above and found having ROCK2 inhibitory activity.

Chain of ROCK2 (O75116 whole entry, species assumed): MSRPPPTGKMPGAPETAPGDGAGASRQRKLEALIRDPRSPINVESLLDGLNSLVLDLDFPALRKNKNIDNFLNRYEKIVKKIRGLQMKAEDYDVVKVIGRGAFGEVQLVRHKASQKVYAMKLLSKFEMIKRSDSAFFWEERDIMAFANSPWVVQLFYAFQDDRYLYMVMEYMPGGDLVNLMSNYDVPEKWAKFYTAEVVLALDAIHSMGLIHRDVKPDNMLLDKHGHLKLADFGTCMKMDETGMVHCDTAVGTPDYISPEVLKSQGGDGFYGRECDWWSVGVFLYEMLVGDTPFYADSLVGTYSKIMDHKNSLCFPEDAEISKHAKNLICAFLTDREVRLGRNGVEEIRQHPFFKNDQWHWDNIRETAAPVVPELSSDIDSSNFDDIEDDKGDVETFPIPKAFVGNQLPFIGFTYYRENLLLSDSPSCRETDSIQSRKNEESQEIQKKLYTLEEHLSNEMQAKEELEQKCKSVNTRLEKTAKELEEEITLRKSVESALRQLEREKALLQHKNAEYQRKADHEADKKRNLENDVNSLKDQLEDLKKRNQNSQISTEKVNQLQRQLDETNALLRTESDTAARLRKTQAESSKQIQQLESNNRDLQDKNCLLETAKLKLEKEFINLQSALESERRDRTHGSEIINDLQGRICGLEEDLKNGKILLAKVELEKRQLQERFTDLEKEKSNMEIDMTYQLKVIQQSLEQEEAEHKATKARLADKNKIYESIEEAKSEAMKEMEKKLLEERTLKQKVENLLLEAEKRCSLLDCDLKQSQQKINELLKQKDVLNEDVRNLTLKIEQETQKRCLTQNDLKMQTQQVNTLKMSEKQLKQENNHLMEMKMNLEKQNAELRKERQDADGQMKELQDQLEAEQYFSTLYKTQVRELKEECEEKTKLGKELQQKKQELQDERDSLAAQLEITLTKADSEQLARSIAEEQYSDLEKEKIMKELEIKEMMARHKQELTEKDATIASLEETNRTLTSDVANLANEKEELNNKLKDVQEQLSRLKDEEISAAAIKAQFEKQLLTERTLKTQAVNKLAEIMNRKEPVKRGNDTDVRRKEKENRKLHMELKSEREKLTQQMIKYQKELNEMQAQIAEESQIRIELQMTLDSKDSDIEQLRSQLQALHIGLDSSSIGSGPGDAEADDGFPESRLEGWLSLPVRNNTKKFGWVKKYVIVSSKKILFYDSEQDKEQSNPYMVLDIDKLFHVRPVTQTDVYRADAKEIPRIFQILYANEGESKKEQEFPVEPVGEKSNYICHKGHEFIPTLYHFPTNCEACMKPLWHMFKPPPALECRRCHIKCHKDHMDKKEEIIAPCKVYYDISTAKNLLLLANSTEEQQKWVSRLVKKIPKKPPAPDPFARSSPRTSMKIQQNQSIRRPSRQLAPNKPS

Going from “2-cyclopropyl-4- {[(aR)-6-{4-[(1R)- 1-hydroxyethyl]-2,5- dioxoimidazolidin-1- yl}spiro[3.3]heptan- 2-yl]oxy}-1,3- thiazole-5- carboxamide [Example 109]” to `NC(=O)c1cc2sccc2nc1OC1CC2(CC(NC(=O)C3CC(=O)N(Cc4ccc(Cl)cc4)C3)C2)C1` (single isomer, unassigned) [Example 78, N-[6-({6-carbamoylthieno[3,2-b]pyridin-5-yl}oxy)spiro[3.3]heptan-2-yl]-1-[(4-chlorophenyl)methyl]-5-oxopyrrolidine-3-carboxamide], the IC50 rises from 330 nM to 3100 nM (9.4-fold). The first is the more potent here.

Going from `NC(=O)c1cc2sccc2nc1OC1CC2(CC(NC(=O)C3CC(=O)N(Cc4ccc(Cl)cc4)C3)C2)C1` (single isomer, unassigned) [Example 80, N-[6-({6-carbamoylthieno[3,2-b]pyridin-5-yl}oxy)spiro[3.3]heptan-2-yl]-1-[(4-chlorophenyl)methyl]-5-oxopyrrolidine-3-carboxamide] to `CC(C)CC1NC(=O)N([C@H]2C[C@@]3(C[C@H](Oc4nc(C5CC5)sc4C(N)=O)C3)C2)C1=O` (single isomer, unassigned) [Example 110, 2-cyclopropyl-4-{[{aR)-6-[4-(2-methylpropyl)-2,5-dioxoimidazolidin-1-yl]spiro[3.3]heptan-2-yl]oxy}-1,3-thiazole-5-carboxamide], the IC50 falls from 2340 nM to 12.2 nM (190-fold). The second is the more potent here.

Compared with `CC(C)CC1NC(=O)N([C@H]2C[C@@]3(C[C@H](Oc4nc(C5CC5)sc4C(N)=O)C3)C2)C1=O` (single isomer, unassigned) [Example 111], `[H][C@]1(Oc2nc(C)sc2C(N)=O)C[C@]2(C[C@@H](NC(=O)c3cnn(-c4ccc(Cl)cc4)c3C)C2)C1` (stereo partly drawn) [Example 1, 4-(((aR)-6-(1-(4-Chlorophenyl)-5-methyl-1H-pyrazole-4-carboxamido)spiro[3.3]heptan-2-yl)oxy)-2-methylthiazole-5-carboxamide] is 2.5-fold lower in IC50: 106 nM for the first, 42.7 nM for the second. The second is the more potent here.

Compared with `[H][C@]1(Oc2nc(C3CC3)sc2C(N)=O)C[C@]2(C[C@@H](NC(=O)c3nc(C(F)(F)F)n4cc(-n5ccccc5=O)ccc34)C2)C1` (stereo partly drawn) [Example 3, 2-Cyclopropyl-4-(((aR)-6-(6-(2-oxopyridin-1(2H)-yl)-3-(trifluoromethyl)imidazo[1,5-a]pyridine-1-carboxamido)spiro[3.3]heptan-2-yl)oxy)thiazole-5-carboxamide], `Cn1cc(C(N)=O)c(OC2CC3(CC(NC(=O)c4cnn5cc(OCCC(F)(F)F)ccc45)C3)C2)n1` [Example 4, N-((aR)-6-((4-Carbamoyl-1-methyl-1H-pyrazol-3-yl)oxy)spiro[3.3]heptan-2-yl)-6-(3,3,3-trifluoropropoxy)pyrazolo[1,5-a]pyridine-3-carboxamide] is 3.4-fold lower in IC50: 68.8 nM for the first, 20.1 nM for the second.

First: CC(C)(O)COc1ccc2c(C(=O)NC3CC4(C3)CC(Oc3nn(CC5CC5)cc3C(N)=O)C4)cnn2c1C1CC1 (centres unmarked) [Example 5]
Second: [H][C@]1(Oc2nn3ccccc3c2C(N)=O)C[C@]2(C[C@@H](NC(=O)c3cnn4c(C5CC5)c(OCC(C)(C)O)ccc34)C2)C1 (some centres unmarked) [Example 6]
The IC50 of the first is 2.1-fold higher: 52.6 nM for the first, 25.6 nM for the second. The second is the more potent here.

`CC(C)(O)COc1ccc2c(C(=O)NC3CC4(C3)CC(Oc3nc5ncccc5cc3C(N)=O)C4)cnn2c1C1CC1` [Example 7, 2-(((aR)-6-(7-Cyclopropyl-6-(2-hydroxy-2-methylpropoxy)pyrazolo[1,5-a]pyridine-3-carboxamido)spiro[3.3]heptan-2-yl)oxy)-1,8-naphthyridine-3-carboxamide] and `CC(C)(O)COc1ccc2c(C(=O)NC3CC4(C3)CC(Oc3nc5c(cc3C(N)=O)CCCN5)C4)cnn2c1C1CC1` [Example 8, 2-(((aR)-6-(7-Cyclopropyl-6-(2-hydroxy-2-methylpropoxy)pyrazolo[1,5-a]pyridine-3-carboxamido)spiro[3.3]heptan-2-yl)oxy)-5,6,7,8-tetrahydro-1,8-naphthyridine-3-carboxamide] are within 1.5-fold of each other in IC50: 4.8 nM for the first, 5.4 nM for the second.

First: NC(=O)c1cc2sccc2nc1OC1CC2(CC(NC(=O)C3CCC(C(F)(F)F)CC3)C2)C1 (centres unmarked) [Example 9, 5-((6-(4-(Trifluoromethyl)cyclohexane-1-carboxamido)spiro[3.3]heptan-2-yl)oxy)thieno[3,2-b]pyridine-6-carboxamide]
Second: CC(C)CC1NC(=O)N([C@H]2C[C@@]3(C[C@H](Oc4nc(C5CC5)sc4C(N)=O)C3)C2)C1=O (some centres unmarked) [Example 10]
The IC50 of the first is 13-fold higher: 349 nM for the first, 27.4 nM for the second. The second is the more potent here.

Compared with `NC(=O)c1sc(C2CC2)nc1O[C@H]1CC2(C[C@H](NC(=O)c3cnn4cc(OCC(F)F)ccc34)C2)C1` (stereo partly drawn) [Example 11, 2-cyclopropyl-4-(((aR)-6-(6-(2,2-difluoroethoxy)pyrazolo[1,5-a]pyridine-3-carboxamido)spiro[3.3]heptan-2-yl)oxy)thiazole-5-carboxamide], `CC(C)(O)COc1ccc2c(C(=O)NC3CC4(C3)CC(Oc3nc5c(cc3C(N)=O)COCC5)C4)cnn2c1` [Example 12, 6-(2-hydroxy-2-methylpropoxy)-N-[(aR)-6-({3-carbamoyl-5H,7H,8H-pyrano[4,3-b]pyridin-2-yl}oxy)spiro[3.3]heptan-2-yl]pyrazolo[1,5-a]pyridine-3-carboxamide] is 1.7-fold higher in IC50: 23.3 nM for the first, 40.1 nM for the second. The first is the more potent here.

First: NC(=O)c1cc2c(nc1O[C@H]1C[C@]3(C1)C[C@H](N1C(=O)CN(Cc4ccccc4)CC1=O)C3)CCOC2 (some centres unmarked) [Example 13]
Second: Cn1cc(C(N)=O)c(O[C@H]2C[C@@]3(C[C@H](NC(=O)c4cnn5c(C6CC6)c(OCC(C)(C)O)ccc45)C3)C2)n1 (stereo partly drawn) [Example 14, 3-({(aR)-6-[7-cyclopropyl-6-(2-hydroxy-2-methylpropoxy)pyrazolo [1,5-a]pyridine-3-amido]spiro[3.3]heptan-2-yl}oxy)-1-methyl-1H-pyrazole-4-carboxamide]
The IC50 of the first is 41-fold higher: 576 nM for the first, 14.1 nM for the second. The second is the more potent here.

`CC(C)(O)COc1ccc2c(C(=O)N[C@H]3C[C@]4(C3)C[C@H](Oc3nn(-c5ccccc5)cc3C(N)=O)C4)cnn2c1C1CC1` (stereo partly drawn) [Example 15, 3-({(aR)-6-[7-cyclopropyl-6-(2-hydroxy-2-methylpropoxy)pyrazolo [1,5-a]pyridine-3-amido]spiro[3.3]heptan-2-yl}oxy)-1-phenyl-1H-pyrazole-4-carboxamide] and `CC(C)(O)COc1ccc2c(C(=O)N[C@H]3C[C@]4(C3)C[C@H](Oc3nc(-c5ccccc5)sc3C(N)=O)C4)cnn2c1` (stereo partly drawn) [Example 17, 4-({(aR)-6-[6-(2-hydroxy-2-methylpropoxy)pyrazolo [1,5-a]pyridine-3-amido]spiro[3.3]heptan-2-yl}oxy)-2-phenyl-1,3-thiazole-5-carboxamide] are within 1.5-fold of each other in IC50: 12.5 nM for the first, 18.5 nM for the second.

`CC(C)(O)COc1ccc2c(C(=O)N[C@H]3C[C@]4(C3)C[C@H](Oc3nc(-c5ccccc5)sc3C(N)=O)C4)cnn2c1C1CC1` (stereo partly drawn) [Example 18, 4-({(aR)-6-[7-cyclopropyl-6-(2-hydroxy-2-methylpropoxy)pyrazolo [1,5-a]pyridine-3-amido]spiro[3.3]heptan-2-yl}oxy)-2-phenyl-1,3-thiazole-5-carboxamide] and `CCn1cc(C(N)=O)c(O[C@H]2C[C@@]3(C[C@H](NC(=O)c4cnn5c(C6CC6)c(OCC(C)(C)O)ccc45)C3)C2)n1` (stereo partly drawn) [Example 19, 3-({(aR)-6-[7-cyclopropyl-6-(2-hydroxy-2-methylpropoxy)pyrazolo [1,5-a]pyridine-3-amido]spiro[3.3]heptan-2-yl}oxy)-1-ethyl-1H-pyrazole-4-carboxamide] are within 1.5-fold of each other in IC50: 13.4 nM for the first, 10.5 nM for the second.

First: CC(C)(O)COc1ccc2c(C(=O)NC3CC4(C3)CC(Oc3nn(CC5CCNCC5)cc3C(N)=O)C4)cnn2c1C1CC1 [Example 20, 3-({(aR)-6-[7-cyclopropyl-6-(2-hydroxy-2-methylpropoxy)pyrazolo [1,5-a]pyridine-3-amido]spiro[3.3]heptan-2-yl}oxy)-1-[(piperidin-4-yl)methyl]-1H-pyrazole-4-carboxamide]
Second: Cc1nc(O[C@H]2C[C@@]3(C[C@H](NC(=O)c4cnn5cc(OCC(C)(C)O)ccc45)C3)C2)c(C(N)=O)s1 (stereo partly drawn) [Example 21, 4-({(aR)-6-[6-(2-hydroxy-2-methylpropoxy)pyrazolo [1,5-a]pyridine-3-amido]spiro[3.3]heptan-2-yl}oxy)-2-methyl-1,3-thiazole-5-carboxamide]
The IC50 of the first is 2.8-fold lower: 6.8 nM for the first, 18.9 nM for the second. The first is the more potent here.

Going from `Cc1nc(O[C@H]2C[C@@]3(C[C@H](NC(=O)c4cnn5c(C6CC6)c(OCC(C)(C)O)ccc45)C3)C2)c(C(N)=O)s1` (stereo partly drawn) [Example 22, 4-({(aR)-6-[7-cyclopropyl-6-(2-hydroxy-2-methylpropoxy)pyrazolo [1,5-a]pyridine-3-amido]spiro[3.3]heptan-2-yl}oxy)-2-methyl-1,3-thiazole-5-carboxamide] to `COCCn1cc(C(N)=O)c(O[C@H]2C[C@@]3(C[C@H](NC(=O)c4cnn5c(C6CC6)c(OCC(C)(C)O)ccc45)C3)C2)n1` (stereo partly drawn) [Example 23, 3-({(aR)-6-[7-cyclopropyl-6-(2-hydroxy-2-methylpropoxy)pyrazolo [1,5-a]pyridine-3-amido]spiro[3.3]heptan-2-yl}oxy)-1-(2-methoxyethyl)-1H-pyrazole-4-carboxamide], the IC50 rises from 7 nM to 77.7 nM (11-fold). The first is the more potent here.

Compared with `COCCn1ncc(C(N)=O)c1O[C@H]1C[C@@]2(C[C@H](NC(=O)c3cnn4c(C5CC5)c(OCC(C)(C)O)ccc34)C2)C1` (stereo partly drawn) [Example 24, 5-({(aR)-6-[7-cyclopropyl-6-(2-hydroxy-2-methylpropoxy)pyrazolo [1,5-a]pyridine-3-amido]spiro[3.3]heptan-2-yl}oxy)-1-(2-methoxyethyl)-1H-pyrazole-4-carboxamide], `Cc1nc(O[C@H]2C[C@@]3(C[C@H](NC(=O)c4nn(C(F)F)c5cc(OCC(C)(C)O)ccc45)C3)C2)c(C(N)=O)s1` (stereo partly drawn) [Example 25, N-{(aR)-6-[(5-carbamoyl-2-methyl-1,3-thiazol-4-yl)oxy]spiro[3.3]heptan-2-yl}-1-(difluoromethyl)-6-(2-hydroxy-2-methylpropoxy)-1H-indazole-3-carboxamide] is 230-fold lower in IC50: 1480 nM for the first, 6.4 nM for the second. The second is the more potent here.

Work on `CC(C)(O)COc1ccc2c(C(=O)N[C@H]3C[C@]4(C3)C[C@H](Oc3[nH]ncc3C(N)=O)C4)cnn2c1C1CC1` (stereo partly drawn) [Example 26, 5-({(aR)-6-[7-cyclopropyl-6-(2-hydroxy-2-methylpropoxy)pyrazolo [1,5-a]pyridine-3-amido]spiro[3.3]heptan-2-yl}oxy)-1H-pyrazole-4-carboxamide] yielded an IC50 of 25.4 nM.
